Here are results for 34 compounds from patent US5750754A, “Heterocyclic compounds” (Zeneca Limited, priority 1993, dated 1998).

Structures can show the parent of a compound that is named as a salt.

Experiment [1] deals with T1, human, citrated, platelet-rich plasma (Homo sapiens, UniProt P05106+P08514).
T1 construct: aggregating human, citrated, platelet-rich plasma; endogenous in cells; host or cells: human platelets in citrated platelet-rich plasma
Put plainly: Test (a): inhibition of ADP stimulated platelet aggregation (Born). Type of experiment: cell-based. Particulars: ADP induced aggregation of human platelet-rich plasma; for Kb: read-out: Test (a): pA2 value indicating potency of platelet aggregation inhibition (converted). The gist of the method: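 pA2 calculated by comparing ADP EC50-type (50% response) values in presence and absence of compound, averaged across concentrations (generally 10-^5 M to 10-^10 M). Aggregation (Born) induced by ADP in citrated human platelet-rich plasma, giving dose-response curves.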

For experiment [2], the target named is T2, purified human platelet fibrinogen receptor (GPIIb/IIIa) (Homo sapiens, UniProt P05106+P08514).
T2 construct: is isolated from human platelet lysates; from tissue
T2 sequence (P08514 32-887 limits assumed): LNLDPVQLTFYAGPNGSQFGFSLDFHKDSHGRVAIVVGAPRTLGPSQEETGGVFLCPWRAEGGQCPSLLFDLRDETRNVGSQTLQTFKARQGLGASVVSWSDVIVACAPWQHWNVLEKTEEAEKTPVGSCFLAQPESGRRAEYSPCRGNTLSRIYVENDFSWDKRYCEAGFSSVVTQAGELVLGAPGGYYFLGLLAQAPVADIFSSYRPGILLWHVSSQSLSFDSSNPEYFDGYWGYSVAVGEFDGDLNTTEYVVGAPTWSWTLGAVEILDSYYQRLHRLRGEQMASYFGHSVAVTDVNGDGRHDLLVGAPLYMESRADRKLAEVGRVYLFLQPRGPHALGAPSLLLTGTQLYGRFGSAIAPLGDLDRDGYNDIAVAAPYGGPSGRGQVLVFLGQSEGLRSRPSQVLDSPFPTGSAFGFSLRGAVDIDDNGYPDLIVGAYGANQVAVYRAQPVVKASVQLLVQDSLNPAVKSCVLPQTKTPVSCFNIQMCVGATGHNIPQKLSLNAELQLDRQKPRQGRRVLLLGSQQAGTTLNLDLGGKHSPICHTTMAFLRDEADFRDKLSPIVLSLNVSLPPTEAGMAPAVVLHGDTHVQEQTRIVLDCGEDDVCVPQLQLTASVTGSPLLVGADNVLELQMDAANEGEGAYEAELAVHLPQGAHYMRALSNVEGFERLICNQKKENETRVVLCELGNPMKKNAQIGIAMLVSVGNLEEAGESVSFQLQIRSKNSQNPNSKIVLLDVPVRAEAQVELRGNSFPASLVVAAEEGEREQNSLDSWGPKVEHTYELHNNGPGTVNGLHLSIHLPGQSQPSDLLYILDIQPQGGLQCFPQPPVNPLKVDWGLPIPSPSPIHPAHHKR
T2 sequence (P08514 891-1039 limits assumed): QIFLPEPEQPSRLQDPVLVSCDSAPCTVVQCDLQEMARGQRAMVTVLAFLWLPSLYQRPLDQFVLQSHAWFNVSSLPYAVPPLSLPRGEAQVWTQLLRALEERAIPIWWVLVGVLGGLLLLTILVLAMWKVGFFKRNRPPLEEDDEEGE
T2 sequence (P05106 27-788): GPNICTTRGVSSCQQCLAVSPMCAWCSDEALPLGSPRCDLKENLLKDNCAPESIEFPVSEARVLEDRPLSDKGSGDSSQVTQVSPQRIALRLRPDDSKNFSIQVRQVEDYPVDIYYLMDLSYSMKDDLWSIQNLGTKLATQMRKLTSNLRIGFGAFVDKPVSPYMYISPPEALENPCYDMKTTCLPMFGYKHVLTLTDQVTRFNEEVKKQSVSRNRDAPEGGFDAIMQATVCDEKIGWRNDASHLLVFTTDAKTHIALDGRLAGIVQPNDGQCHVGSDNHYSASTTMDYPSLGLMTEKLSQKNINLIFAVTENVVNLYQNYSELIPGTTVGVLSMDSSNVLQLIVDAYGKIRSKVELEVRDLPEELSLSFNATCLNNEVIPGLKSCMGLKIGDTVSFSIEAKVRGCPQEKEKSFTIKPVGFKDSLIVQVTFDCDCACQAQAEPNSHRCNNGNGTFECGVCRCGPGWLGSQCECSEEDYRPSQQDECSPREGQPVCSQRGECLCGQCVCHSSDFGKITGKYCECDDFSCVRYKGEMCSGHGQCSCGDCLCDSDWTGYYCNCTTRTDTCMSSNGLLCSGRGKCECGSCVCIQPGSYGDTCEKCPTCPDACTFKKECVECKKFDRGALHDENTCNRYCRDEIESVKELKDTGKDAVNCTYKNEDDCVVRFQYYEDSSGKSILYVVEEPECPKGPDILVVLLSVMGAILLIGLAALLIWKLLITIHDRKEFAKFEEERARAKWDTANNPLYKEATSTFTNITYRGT
The experiment in a line: Test (b): GPIIb/IIIa ELISA, inhibition of biotinylated fibrinogen binding. Particulars: purified human platelet GPIIb/IIIa, ELISA; for IC50: read-out: Test (b): pIC50 (-log(IC50)), 50% inhibition of biotinylated fibrinogen binding to GPIIb/IIIa (converted). The gist of the method: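 Inhibition of biotinylated fibrinogen ([…]) binding to immobilised human platelet fibrinogen receptor, purified by KYGRGDS peptide affinity chromatography, was measured after 2 h at 30 °C. Readout: streptavidin–biotin-HRP colour with TMB at […]; value expressed as pIC50.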

T1 sequence (P08514 32-887 limits assumed): as the sequence (P08514 32-887 limits assumed) above
T1 sequence (P08514 891-1039 limits assumed): as the sequence (P08514 891-1039 limits assumed) above
T1 sequence (P05106 27-788): as the sequence (P05106 27-788) above

Turning to `CCOC(=O)C=CCOc1ccc(N2CCN(c3ccncc3)CC2)cc1` [Example 54, Ethyl 4-[4-(4-pyridyl)piperazin-1-yl]phenoxycrotonate], the Kb in experiment [1] was 15800 nM. Further, the IC50 in experiment [2] is over 100000 nM.

In the case of `Cc1ccc(S(=O)(=O)NCc2ccc(NC(=O)C3CCN(c4ccncc4)CC3)cc2)cc1` [Example 171, N-[4[4-[1-(4-Pyridyl)piperidin-4yl]carboxyamidophenyl]methyl]-4-methylphenylsulphonamide], the Kb in experiment [1] is 6310 nM. In experiment [2], the IC50 is over 100000 nM.

Turning to `O=C(O)[C@H]1CC[C@H](Oc2ccc(N3CCN(c4ccncc4)CC3)cc2)CC1` [Example 231, Trans-4-[4-[4-(4-pyridyl)piperazin-1-yl]phenoxy]cyclohexane carboxylic acid], in experiment [1], the Kb is 200 nM. For the same compound, the IC50 in experiment [2] was 31.6 nM.

For `COC(=O)COc1ccc(C(=O)CN2CCN(c3ccncc3)CC2)c2ccccc12` [Example 117], the Kb in experiment [1] was 12600 nM. In addition, the IC50 in experiment [2] was 3980 nM.

`CNC(=O)COc1ccc(C(=O)CN2CCN(c3ccncc3)CC2)cc1` [Example 143, 2-[4-[2-[4-(4-Pyridyl)piperazin-1-yl]acetyl]phenoxy]-N-methylacetamide]: the Kb in experiment [1] was 10000 nM. The IC50 in experiment [2] was 31600 nM.

As for `O=C(O)CCNC(=O)c1ccc(N2CCN(c3ccncc3)CC2)nc1` [Example 70, 3-[6-[4-(4-Pyridyl)piperazin-1-yl]pyrid-3-ylcarboxamido]propionic acid], in experiment [1], the Kb was 79.4 nM. The IC50 in experiment [2] is 15.8 nM.

On to `COC(=O)[C@H](Cc1ccc(OCCC2CCN(c3ccncc3)CC2)cc1)NS(=O)(=O)Cc1ccccc1` [Example 86, Methyl 2-S-(benzylsulphonylamino)-3-[4-[2-[1-(4-pyridyl)piperidin-4-yl]ethoxy]phenyl]propionate], for which the Kb in experiment [1] is 3980 nM. Also, in experiment [2], the IC50 is 200 nM.

On to `O=C(O)COc1cc(OCC(=O)O)cc(C(=O)CN2CCN(c3ccncc3)CC2)c1` [Example 134, Disodium 2,2'-[5-[2-[4-(4-pyridyl)piperazin-1-yl]acetyl]phenylene-1,3-dioxy]diacetate], for which, in experiment [1], the Kb is 15800 nM. Also, the IC50 in experiment [2] was 25100 nM.

Take `CN(C)c1ccncc1COc1ccc(OCCCC(=O)O)cc1` [Example 113, 4-[4-[(4-Dimethylaminopyrid-3-yl)methoxy]phenoxy]butanoic acid]: the Kb in experiment [1] was over 100000 nM. Besides, the IC50 in experiment [2] was 25100 nM.

With `O=C(O)COc1ccc(NC(=O)N2CCN(c3ccncc3)CC2)cc1` [Example 64, 4-[[4-(4-Pyridyl)piperazin-1-yl]carboxamido]phenoxyacetic acid], the Kb in experiment [1] was 31.6 nM. In addition, the IC50 in experiment [2] was 20 nM.

As to `O=C(O)C[C@H](NC(=O)CN1CCN(c2ccncc2)CC1)C(=O)N[C@@H](Cc1ccccc1)C(=O)O` [Example 39, N-[N-[2-[4-(4-Pyridyl)piperazin-1-yl]acetal]-L-aspartyl]-L-phenylalanine], in experiment [1], the Kb was 25100 nM. The IC50 in experiment [2] is 251 nM.

As to `CS(=O)(=O)NCc1ccc(NC(=O)C2CCN(c3ccncc3)CC2)cc1` [Example 182], in experiment [1], the Kb is 7940 nM. Moreover, in experiment [2], the IC50 was 20000 nM.

In the case of `CCCCS(=O)(=O)N[C@@H](Cc1ccc(OCCCN(C)c2ccncc2)cc1)C(=O)OC` [Example 95, Methyl-2-S-(n-butylsulphonylamino)-3-[3-(N-methyl-N-4-pyridyl)aminopropoxy]phenylpropionate], in experiment [1], the Kb is 10000 nM. Besides, the IC50 in experiment [2] was 7940 nM.

On to `O=C(O)COc1cccc(C(=O)CN2CCN(c3ccncc3)CC2)c1` [Example 126, 3-[2-[4-(4-Pyridyl)piperazin-1-yl]acetyl]phenoxyacetic acid, dihydrochloride], for which the Kb in experiment [1] is 15800 nM. Besides, in experiment [2], the IC50 was 3160 nM.

`CCCCS(=O)(=O)N[C@@H](Cc1ccc(OCC2CCN(c3ccncc3)CC2)cc1)C(=O)OC` [Example 33, Methyl 2-S-(n-butylsulphonylamino)-3-[4-[1-(4-pyridyl)piperidin-4-yl]methoxyphenyl]propionate]: the Kb in experiment [1] is 398 nM. Further, the IC50 in experiment [2] is 126 nM.

Turning to `COC(=O)[C@H](Cc1ccc(OCCC2CCN(c3ccncc3)CC2)cc1)NS(=O)(=O)c1ccc(C)cc1` [Example 87, Methyl 2-S-(4-methylphenylsulphonylamino)-3-[4-[2-[1-(4-pyridyl)piperidin-4-yl]ethoxy]phenyl]propionate], the Kb in experiment [1] is 2510 nM. Besides, the IC50 in experiment [2] was 63.1 nM.

For `CCCCS(=O)(=O)NC(Cc1ccc(C(=O)CN2CCN(c3ccncc3)CC2)cc1)C(=O)O` (racemic) [Example 67, 2-RS-(n-Butylsulphonylamino)-3-[4-[2-[4-(4-pyridyl)piperazine-1-yl]acetyl]phenyl]propionic acid], the Kb in experiment [1] was 2.51 nM. In addition, the IC50 in experiment [2] is 3.16 nM.

Turning to `CCn1cc(C(=O)O)c(=O)c2ccc(N3CCN(c4ccncc4)CC3)cc21` [Example 65, Ethyl-4-[4-(4-pyridyl)piperazin-1-yl]-4-quinolon-3-ylcarboxylic acid], in experiment [1], the Kb was 6310 nM. The IC50 in experiment [2] is 2510 nM.

Regarding `CCCCS(=O)(=O)NC(CC(=O)O)c1ccc(OCC2CCN(c3ccncc3)CC2)cc1` (centres unmarked) [Example 98, 3-(n-Butylsulphonylamino)-3-[4-[1-(4-pyridyl)piperidin-4-yl]methoxyphenyl]propionic acid], the “Test (a): pA2 value indicating potency of platelet aggregation inhibition” value in experiment [1] is given as 7.6. The “Test (b): pIC50 (-log(IC50)), 50% inhibition of biotinylated fibrinogen binding to GPIIb/IIIa” value in experiment [2] is on record as 8.5.

For the compound `CCOC(=O)CCCOc1cccc(N2CCN(c3ccncc3)CC2)c1` [Example 226, Ethyl 3-[4-(4-pyridyl)piperazin-1-yl]phenoxybutyrate], the Kb in experiment [1] was 20000 nM. The IC50 in experiment [2] is 3160 nM.

As to `COC(=O)COc1ccc(C(=O)C(C)N2CCN(c3ccncc3)CC2)cc1OCC(=O)OC` (centres unmarked) [Example 78], the Kb in experiment [1] was 158 nM. The IC50 in experiment [2] is 251 nM.

`O=C(O)Cc1ccc(C(=O)CN2CCN(c3ccncc3)CC2)cc1` [Example 15, 4-[2-[4-(4-Pyridyl)piperazin-1-yl]acetyl]phenylacetic acid, trifluoroacetate salt]: in experiment [1], the Kb is 2510 nM. Besides, the IC50 in experiment [2] was 1260 nM.

As to `O=C(O)COc1ccc(C(=O)CN2CCN(c3ccnc4c3CCCC4)CC2)cc1` [Example 46, 4-[2-[4-(5,6,7,8-Tetrahydro-4-quinolinyl)piperazin-1-yl]acetyl]phenoxyacetic acid], in experiment [1], the Kb is 1000 nM. Also, in experiment [2], the IC50 is 25.1 nM.

Consider `COC(=O)COc1ccc(OC2CCN(c3ccncc3)CC2)cc1` [Example 155, Methyl 4-[1-(4-pyridyl)piperidin-4-yl]oxyphenoxyacetate], for which, in experiment [1], the Kb is 3160 nM. Besides, the IC50 in experiment [2] was over 100000 nM.

Turning to `O=C(O)COc1ccc2c(CN3CCN(c4ccncc4)CC3)cccc2c1` [Example 76, 5-[[4-(4-Pyridyl)piperazin-1-yl]methylene]naphth-2-yloxyacetic acid], in experiment [1], the Kb is 31600 nM. Besides, in experiment [2], the IC50 was 1260 nM.

In the case of `O=C(O)C[C@H](NC(=O)CNC(=O)CN1CCN(c2ccncc2)CC1)C(=O)NCCc1ccccc1` [Example 194, (S)-3-[N-(2-Phenethyl)carboxamido]-3-[N-[N-2-[4-(4-pyridyl)piperazin-1-yl]acetyl]glycyl]aminopropionic acid, trifluoroacetate], the Kb in experiment [1] is 3980 nM. Moreover, in experiment [2], the IC50 is 126 nM.

Consider `Cc1cc(N2CCN(CC(=O)c3ccc(OCC(=O)O)cc3)CC2)cc(C)n1` [Example 154, 4-[2-[4-(2,6-Dimethylpyrid-4-yl)piperazin-1-yl]actyl]phenoxyacetic acid, dihydrobromide], for which the Kb in experiment [1] is 10000 nM. The IC50 in experiment [2] was 2510 nM.

On to `COC(=O)COc1ccc(C(=O)CN2CCN(c3ccncc3)CC2)cc1OC` [Example 5, Methyl 4-[2-[4-(4-pyridyl)piperazin-1-yl]acetyl]-2-methoxyphenoxyacetate], for which, in experiment [1], the Kb is 1000 nM. Also, the IC50 in experiment [2] is 1000 nM.

`O=C(O)CC(NC(=O)c1cccc(CN2CCN(c3ccncc3)CC2)c1)c1ccccc1` (centres unmarked) [Example 55, 3-[3-[4-(4-Pyridyl)piperazin-1-ylmethyl]]benzamido-3-phenylpropionic acid]: the Kb in experiment [1] is 31600 nM. The IC50 in experiment [2] is 15800 nM.

Turning to `O=C(O)C[C@@H](NC(=O)c1ccc(N2CCN(c3ccncc3)CC2)cc1)C(=O)NCCc1ccccc1` [Example 193], in experiment [1], the Kb was 39800 nM. For the same compound, the IC50 in experiment [2] is 251 nM.

Turning to `O=C(O)COc1ccc(C(=O)NCC2CCN(c3ccncc3)CC2)cc1` [Example 168], the Kb in experiment [1] is 794 nM. In addition, the IC50 in experiment [2] was 398 nM.

On to `CCCCS(=O)(=O)N[C@@H](Cc1ccc(OCCCC2CCN(c3ccncc3)CC2)cc1)C(=O)OC` [Example 81, Methyl 2-S-(n-butylsulphonylamino)-3-[4-[3-[1-(4-pyridyl)piperidin-4-yl]propoxy]phenyl]propionate], for which, in experiment [1], the Kb was 15800 nM. For the same compound, the IC50 in experiment [2] was 200 nM.

On to `O=C(O)CCNC(=O)CCCCN1CCN(c2ccncc2)CC1` [Example 198, 3-[5-[4-(4-Pyridyl)piperazine-1-yl]pentanoyl]aminopropionic acid], for which, in experiment [1], the Kb was 794 nM. In addition, the IC50 in experiment [2] was 20 nM.

On to `O=C(O)CO[C@@H]1CCN(C(=O)CN2CCN(c3ccncc3)CC2)C[C@H]1OCC(=O)O` (relative stereo) [Example 105], for which, in experiment [1], the Kb was 251 nM. Besides, in experiment [2], the IC50 is 251 nM.
